Assay results from patent US20250144250A1, “PH-SENSITIVE FLUOROPHORES” (The General Hospital Corporation, priority 2022, published 2025).

Assays:
Format in all cases: in vivo, mice
[1] = test system: peritoneal dissemination of ID8 ovarian cancer; test: Intraoperative NIR imaging in mouse model of peritoneal dissemination of ovarian cancer; conditions: for TBR (tumor to background ratio): against normal pancreas
Protocol: Intraoperative NIR imaging: Seven-week-old female C57BL/6 mice were purchased from the Jackson Laboratory (Bar Harbor, ME) and housed in an AAALAC-certified facility at Massachusetts General Hospital (MGH). All animal procedures were performed in accordance with the Public Health Service Policy on Humane Care of Laboratory Animals and approved by the MGH IACUC (protocol #2016N000136). To establish a murine model of peritoneal dissemination of ovarian cancer, mice were injected intraperitoneally with 5×10^6 cells in 100 μL saline. In this model, macroscopic metastatic intraperitoneal nodules appear reproducibly at approximately 90 d. To perform NIR fluorescence imaging, mice were fed chlorophyll-free mouse chow (VWR International) at least 5 d prior to imaging to minimize autofluorescence. For in vivo imaging of ovarian cancer, animals were anesthetized with 100 mg/kg ketamine and 10 mg/kg xylazine subcutaneously (Webster Veterinary, Fort Devens, MA). Following anesthesia, a midline incision was made to expose the abdominal cavity. To evaluate in vivo tumor targetability of the NIR fluorophores, mice were intraperitoneally injected with 20 nmol of ovarian cancer-targeted NIR fluorophores dissolved in 100 μL saline containing 5 wt/v % BSA. The abdominal cavity was opened with a midline incision, and NIR images were obtained over 4 h of the exposed abdominal cavity. For NIR fluorescence imaging, we used a custom-built real-time intraoperative NIR imaging system as described previously. In this study, a 760 nm excitation was used at a fluence rate of 4 mW/cm^2, with white light (400-650 nm; 40,000 lux). Color and NIR fluorescence images were acquired simultaneously with custom software at rates up to 15 Hz over a 10 cm diameter field-of-view (FOV). Pseudo-colored lime green was used for NIR fluorescence in the color-NIR merged images. The imaging system was positioned at a distance of 9 inches from the surgical field. For all real-time intraoperative imaging, a standardized imaging protocol was used during and after the operation. General FOV (5 cm in dia.) was used to include the pancreas, head, duodenum, liver, and kidneys of a mouse, while closeup FOV (3.3 cm in dia.) included the pancreas, head, and duodenum. Color and NIR fluorescence images were taken simultaneously. Real-time fluorescence signal in tumors (Tu) and tumor-to-background ratio (TBR) compared to neighboring tissue was obtained over the period of imaging, and the fluorescence intensity was plotted to evaluate in vivo molecular biodistribution and clearance. All images were obtained using the same exposure time. Mice were euthanized 4 h post-injection with CO2 inhalation, and tumor tissues and the major organs, including the heart, lung, liver, pancreas, spleen, kidney, duodenum, intestine, muscle, and adnexa, were removed for ex vivo imaging and histological examination. NIR signals from resected tissues were imaged using the FLARE imaging system. The TBR was calculated using the same formula, with IT representing the intensity of the tumor tissue and IB representing the signal intensity of the surrounding tissue over the imaging period.
(§1) Evaluation of in vivo efficacy of NIR fluorophores for fluorescence-guided surgery (FGS): Having confirmed the pH sensitivity and tumor cell uptake of PH08 in vitro, we next evaluated the in vivo performance of the pH sensing NIR fluorophores in a mouse model of ovarian cancer. […] In this model, approximately 12 week post-peritoneal injection of ID8 cells, numerous nodules were observed on the peritoneum. These small nodules (<1 mm) are extremely difficult to localize and visualize in the surgical field. Thus, this model was suitable to test the performance of this fluorophore. For imaging of ovarian cancer, 20 nmol of PH08 was administered intraperitoneally. The abdominal cavity was then imaged on the custom-built imaging system. […]

[2] = test system: peritoneal dissemination of ID8 ovarian cancer; test: Preclinical intraoperative fluorescence-guided surgery; conditions: FGS 4 h post-injection, 20 nmol
Protocol: Preclinical intraoperative fluorescence-guided surgery: We performed preclinical fluorescence-guided surgery (FGS) in mice with peritoneal dissemination of ID8 ovarian cancer using the FLARE imaging system. We injected 20 nmol of PH08 in 100 μL of 5% wt/v BSA/saline into the mouse intraperitoneally 4 h prior to the surgery. The abdominal cavity was opened with a midline incision under isoflurane inhalational anesthesia. The entire abdominal cavity was examined carefully by a surgeon using color and fluorescent imaging on the FLARE imaging system. Peritoneal dissemination was resected under white light assisted with the color and fluorescent images.
as §1, with “[…] The signal” for “For imaging of ovarian cancer, 20 nmol”, “allowed for clear visualization of” for “was administered intraperitoneally. The abdominal cavity was then imaged on”, “lesions that measured 5 mm or less than 1 mm in diameter.” for “custom-built imaging system.”

[3] = test system: ID8 ovarian cancer tumor tissue; test: Histological analysis of tumor-targetability of the NIR fluorophore; conditions: frozen sections, 4 h post-injection of 20 nmol
Protocol: Histological analysis of tumor-targetability of the NIR fluorophore: To determine the tissue distribution of the NIR fluorophore, tumors and major organs were removed from ID8 ovarian cancer-bearing mice 4 h post-injection with 20 nmol of PH08 in 100 μL of 5% wt/v BSA/saline. The dissected tissues were trimmed and embedded in Tissue-Tek optimum cutting temperature (OCT) compound (Sakura Finetek, Torrance, CA) without a pre-fixation step, and the tissue block was frozen at −80° C. Ten-μm thick frozen sections were cut by a cryostat (Leica, Germany). The slides were subject to fluorescence analysis first, then stained for hematoxylin and eosin (H&E). Fluorescence and brightfield images were acquired on the 4-channel Nikon TE2000 epifluorescence microscope. Image acquisition and analysis were performed using IPLab software (Scanalytics, Fairfax, VA). […] Exposure times were adjusted to obtain a similar maximum fluorescence value for each fluorescence image. […] In order to validate the tumor-specific fluorescence signal, frozen sections including both tumor and adjacent normal tissues harvested from tumor-bearing mice were examined by fluorescence microscopy. […] The fluorescence signal was mostly seen on the top 3-4 layers of cells in the tumor tissue, of which the signal was found predominantly in the extracellular space and cytoplasm.

| SMILES | TBR (tumor to background ratio) [1] | TBR in words ([1]; up to 4 h after administration, compared with PH08) | outcome of FGS [2] | fluorescence signal in tissue sections [3] | time to clear visualization of small tumors after injection ([1]; 20 nmol intraperitoneally) [min] | TBR against surrounding normal tissues and other major organs ([1]; 20 nmol intraperitoneally, within 10 min of injection) | retention / preservation of signals ([1]; post-topical application) | TBR ([1]; up to 4 h after injection) | fluorescence recovery / increase time ([1]; upon topical application) [min] |
| --- | --- | --- | --- | --- | --- | --- | --- | --- | --- |
| CCN1/C(=C/C=C2\CCCC(/C=C/C3=[N+](CC)c4ccccc4C3(C)C)=C2c2ccccc2)C(C)(C)c2ccccc21 [PH03, 1-Ethyl-2-((E)-2-((E)-6-(2-((E)-1-ethyl-3,3-dimethylindolin-2-ylidene)ethylidene)-3,4,5,6-tetrahydro-[1,1′-biphenyl]-2-yl)vinyl)-3,3-dimethyl-3H-indol-1-ium iodide] | ++ (++, 2-3) | smaller TBRs | – | – | – | – | – | – | – |
| CCN1/C(=C/C=C2\CCCC(/C=C/C3=[N+](CC)c4ccccc4C3(C)C)=C2N2CCNCC2)C(C)(C)c2ccccc21 [PH08] | +++ (+++, 3-5) | – | complete resection of metastatic nodules | detected throughout the tumor tissue with no substantial fluorescence signals in neighboring muscles | ≤ 10 | ~6 | at least 4 h | > 5.5 | < 10 |
